Experimental data as given in patent US20260097133A1, “EPIGENETIC EDITING TOOL FOR TARGETING HEPATITIS B VIRUS GENE” (priority 2023, published 2026).

Experiments:
[1] = tested on: type D hepatitis B virus (GenBank: U95551); experiment: Knockdown of HBV markers in HBV-infected primary hepatocytes (PHH), Example 2; type: cell-based; conditions: for level of viral antigen protein (HBsAg, HBeAg/HBcAg) after end of treatment: sgRNA: single 4 h treatment, RG7834 stopped on day 13
Excerpt: A primary hepatocyte (PHH) cell line infected with type D hepatitis B virus (GenBank: U95551) was used in this example. […] Therefore, these four sgRNAs were used to formulate the pharmaceutical composition provided in the present application and perform epigenetic editing in primary hepatocytes to validate their inhibitory effect on HBV gene expression.
Two days after primary hepatocytes were infected with HBV, lipid nanoparticles (LNPs) (LNP preparation reference: https://doi.org/10.1038/s41586-021-03534-y) were used to deliver a composition containing mRNA encoding EPIREG (SEQ ID NO: 1191) and each sgRNA (BSG29, BSG31, BSG34, BSG35) into primary hepatocytes (administration dose was 2.5 μg/ml, the mass ratio of EPIREG to sgRNA was 1:1). The culture supernatant was collected every two days after administration to detect the expression levels of HBV surface antigen (HBsAg) and core antigen (HBcAg) secreted by the cells. Cell samples were collected until 14 days after administration, DNA and RNA were extracted from the cells, and the levels of HBV mRNA and changes in the cccDNA of the HBV gene were detected. The two groups of positive controls used Myrcludex B (WuXi AppTec, C9023GE070-1/PE0723) and RG7834 (WuXi AppTec, ET25747-14-P1), respectively. Myrcludex B could inhibit HBV infection of hepatocytes, and RG7834 could inhibit the synthesis of viral proteins. RG7834 was stopped on the day 13 of the experiment to observe the rebound of viral antigen proteins. (Specific detection methods were performed according to the following kit instructions: HBsAg ELISA kit, Antu-CL 0310; HBeAg ELISA kit, Antu-CL 0312; RNeasy 96 Kit (12), QIAGEN #74182)

[2] = tested on: HBx reporter cell line of type B HBV; experiment: sgRNA functional screening in HBx reporter cell line (293 FT, P2A-EGFP), type B HBV; type: cell-based, type B HBV (serotype adw); conditions: for editing effects in the HBx reporter cell line: type B HBV, different time points after transfection of EPIREG + sgRNA
Excerpt: (§1) 293 FT was used to construct a reporter cell line for type B, type C and type D HBV surface antigen (HBsAg), core antigen (HBcAg), X protein (HBx) and polymerase (Pol), and the schematic diagram is shown in FIG. 1A. The genomic sequence containing the CpG island and regulatory elements before the protein transcription start site was retained, and the gene sequences of the self-cleaving peptide P2A and EGFP were fused after the 38th amino acid of the HBV surface antigen (HBsAg), the 129th amino acid of the core antigen (HBcAg), the 77th amino acid of the X protein (HBx), and the 177th amino acid of the polymerase (Pol), respectively. The reporter gene was integrated into the 293 FT genome using the PiggyBac transposon system, and a stably transfected cell line was constructed. The intensity of fluorescence was used to reflect the expression level of the protein, thereby quickly performing functional validation and preliminary screening of sgRNAs near the CpG island.
The screening scheme for sgRNA functional validation using the above-mentioned reporter cell line was designed as follows (FIG. 1B): after the reporter cells were plated, the composition EPIREG described in the present application (the domain of the composition was DNMT3A-hDNMT3L-xten80-ZIM3-xten80-dCas9, with an amino acid sequence as set forth in SEQ ID NO: 1194, and a nucleic acid sequence as set forth in SEQ ID NO: 1192 (CDS sequence) and 1193 (plasmid sequence)) containing different sgRNAs was delivered into the cells by transfection, and the two carried red fluorescence and blue fluorescence, respectively. Flow cytometry was used to sort red fluorescent and blue fluorescent double-positive cell populations, which were cultured for a long time. Flow cytometric analysis was performed every week to detect changes in the fluorescence intensity of the reporter cells, which could reflect changes in protein expression levels after epigenetic editing.

[3] = tested on: HBx reporter cell line of type C HBV; experiment: sgRNA functional screening in HBx reporter cell line (293 FT, P2A-EGFP), type C HBV; type: cell-based, type C HBV (serotype adr)
Excerpt: as §1, with “island. […]” for “island.”

[4] = tested on: HBx reporter cell line of type D HBV; experiment: sgRNA functional screening in HBx reporter cell line (293 FT, P2A-EGFP), type D HBV; type: cell-based, type D HBV (serotype ayw)
Excerpt: as §1, with “island. […]” for “island.”

[5] = tested on: type D hepatitis B virus (GenBank: U95551); experiment: Candidate sgRNA effect validation in HBV-infected primary hepatocytes (PHH), Example 4; type: cell-based; conditions: 14 days after infection
Excerpt: A primary hepatocyte (PHH) cell line (WuXi AppTec, M00995-P) infected with type D hepatitis B virus (GenBank: U95551) was used in this validation experiment. Based on the screening results of the three libraries in Example 3 and combined with factors such as conservation, the 20 sgRNAs shown in the table below were selected to prepare the pharmaceutical composition provided in the present application and perform epigenetic editing in the primary hepatocytes to validate the inhibitory effect of the screened candidate sgRNAs on HBV gene expression.
Two days after primary hepatocytes were infected with HBV, lipid nanoparticles (LNPs) (LNP preparation reference: https://doi.org/10.1038/s41586-021-03534-y) were used to deliver the composition comprising the mRNA encoding EPIREG (sequence: SEQ ID NO: 1191) and each of the above-mentioned sgRNAs into primary hepatocytes (administration dose was 2.5 μg/ml, the mass ratio of EPIREG to sgRNA was 1:1). […] The supernatant of the culture medium was collected every two days after administration in each group, and the expression levels of HBV surface antigen (HBsAg), core antigen (HBcAg/HBeAg) and HBV DNA secreted by the cells were detected until 14 days after infection. Cell samples were collected, DNA and RNA in the cells were extracted, and the level of HBV mRNA was detected. […]

[6] = tested on: HBV genome (type A, GenBank: AF305422.1); experiment: Knockdown of HBV markers in transgenic HBV mice; type: in vivo, mice (C57BL/6-HBV); conditions: after single administration
Excerpt: Transgenic HBV mice (Beijing Vitalstar Biotechnology Co., Ltd., C57BL/6-HBV, subsequent feeding and testing were completed by Beijing Vitalstar) were used in this validation experiment. The genome of this strain of mice was inserted with a 1.28-fold length HBV genome (type A, GenBank: AF305422.1). […] Therefore, this sgRNA was used to prepare the pharmaceutical composition provided in the present application and perform epigenetic editing in transgenic HBV mice to validate the inhibitory effect of this drug on the expression of integrated HBV genes in an in vivo model.
The composition comprising the mRNA encoding EPIREG (sequence: SEQ ID NO: 1191) and sgRNA numbered D99 (BSG35) (mass ratio of mRNA to sgRNA of 1:1) was delivered to transgenic HBV mice (at a dose of 10 mg/kg) by means of tail vein injection of lipid nanoparticles (LNPs) (LNP preparation reference: https://doi.org/10.1038/s41586-021-03534-y). PBS (200 ul) was injected as a negative control, and the antisense oligonucleotide (ASO) drug Bepirovirsen (GSK3228836, dose of 200 mg/kg) was used as a positive control, which could target all HBV RNAs and thus reduce the expression of HBV antigens. After administration, blood was collected regularly in each group to detect the levels of HBV surface antigen (HBsAg) and core antigen (HBcAg/HBeAg) secreted in serum, and the level of HBV DNA was detected by qPCR. […]

[7] = LNP with EPIREG mRNA + sgRNA 1:1, 2.5 μg/ml, 2-10 days after administration

Compound: COCCCOc1cc2c(cc1OC)-c1cc(=O)c(C(=O)O)cn1[C@H](C(C)C)C2 [RG7834, reference compound]
- level of viral antigen protein (HBsAg, HBeAg/HBcAg) after end of treatment [1]: clear rebound (increasing) trend

Compound: AGGAGTTCCGCAGTATGGAT [BSG35]
- inhibitory effects on HBx expression ([2]; type B HBV HBx reporter cell line): nearly the best inhibitory effects
- editing effects in the HBx reporter cell line [2]: extremely high editing effects
- inhibitory effects on HBx expression [3]: nearly the best inhibitory effects
- inhibitory effects on HBx expression [4]: nearly the best inhibitory effects
- inhibitory effect compared with Myrcludex B and RG7834 [1]: close to that of the two reference inhibitors
- inhibitory effect on HBsAg and HBeAg/HBcAg, comparison among sgRNAs ([1]; 2.5 μg/ml): best effect
- expression levels of HBsAg and HBeAg/HBcAg in the supernatant (change) ([1]; 2.5 μg/ml, 2-10 days after administration): different degrees of decrease
- reduction of expression level of HBeAg/HBcAg in the supernatant [1, 7]: about 80%
- reduction of expression level of HBsAg in the supernatant [1, 7]: about 80%
- time at which expression levels of HBsAg and HBeAg/HBcAg became stable ([1]; after single administration): basically stable on the day 4 after administration
- level of viral antigen protein (HBsAg, HBeAg/HBcAg) after end of treatment [1]: remained stable at a low level
- inhibition level, comparison among the 20 sgRNAs [5]: highest inhibition level

Compound: BSG43: sgRNA tested in the HBx reporter cell line of type B HBV (guide TCCTCTACCGATCCATACTG; listed as DNA, chemistry not given here)
- editing effects in the HBx reporter cell line [2]: extremely high editing effects

Compound: BSG50: sgRNA tested in the HBx reporter cell line of type B HBV (guide GATCGGTAGAGGAGACACAA; listed as DNA, chemistry not given here)
- editing effects in the HBx reporter cell line [2]: extremely high editing effects

Compound: Bepirovirsen [ASO]
- persistence of effect on HBV markers [6]: gradually returned to their original levels

Compound: BSG30: sgRNA tested in the HBx reporter cell line of type B HBV (guide CCTGCTGCGAGCAAAACAAG; listed as DNA, chemistry not given here)
- editing effects in the HBx reporter cell line [2]: extremely high editing effects
